Source: patent publication US10098887B2, “Antiviral compounds and methods of use thereof” (Trana Discovery, Inc., priority 2010, dated 2018)

Tested on: interaction between Human tRNA^Lys3 and HIV-1 genomic RNA
Assay: Biochemical HIV-1 tRNA Inhibition Assay (AlphaScreen)
Assay type: binding
Design: key: +: showing some activity; ++: intermediate activity; +++: the highest activity
Settings: active compounds from high throughput screening, prioritized on IC50
Text: The methods for detecting binding of the target RNA to the tRNA or the inhibition of such binding may be performed using any method for such detection. For example, the AlphaScreen® assay (Packard Instrument Company, Meriden, Conn.). AlphaScreen® technology is an “Amplified Luminescent Proximity Homogeneous Assay” method utilizing latex microbeads (250 nm diameter) containing a photosensitizer (donor beads), or chemiluminescent groups and fluorescent acceptor molecules (acceptor beads). Upon illumination with laser light at 680 nm, the photosensitizer in the donor bead converts ambient oxygen to singlet-state oxygen. The excited singlet-state oxygen molecules diffuse approximately 250 nm (one bead diameter) before rapidly decaying. If the acceptor bead is in close proximity to the donor bead (i.e., by virtue of the interaction of the target RNA and tRNA fragment), the singlet-state oxygen molecules reacts with chemiluminescent groups in the acceptor beads, which immediately transfer energy to fluorescent acceptors in the same bead. These fluorescent acceptors shift the emission wavelength to 520-620 nm, resulting in a detectable signal. Antagonists of the interaction of the target RNA with the tRNA fragment will thus inhibit the shift in emission wavelength, whereas agonists of this interaction would enhance it.
In the AlphaScreen configuration (FIG. 3) the assay is done in solution using the same RNA as the immobilization assay. The donor and acceptor beads are bound to their respective RNA's. During the screening the RNAs and test drugs/small molecules are incubated together and formation of the complex is measured using the AlphaScreen detection conditions. Utilization of the AlphaScreen assay may allow for the assay to be run at a lower RNA concentration at room temperature, and increase the stability of the complex.
HIV-1 has evolved to use Human tRNA^Lys3 as a primer for initiation of reverse transcription. Therefore, the interaction between tRNA^Lys3 and viral genomic RNA represents a potential novel target for HIV-1 drug development. Based on this hypothesis, a biochemical assay to identify inhibitors of the interaction between Human tRNA^Lys3 and HIV-1 genomic RNA was developed by TRANA Discovery and transferred to Southern Research Institute for high-throughput screening. This assay was developed as a homogeneous amplified luminescent proximity assay using AlphaScreen™ reagents from PerkinElmer. Based on this assay technology, the AlphaScreen™ luminescent signal serves as a mechanism for detecting the interaction between RNA molecules that represent Human tRNA^Lys3 and HIV-1 genomic RNA. The inhibition of the interaction between these RNA molecules by test compounds is detected as a decrease in the AlphaScreen™ luminescent signal.
A preliminary 15,000 compound screen (NINDS Diversity Set) was previously completed and the results were reported through NIAID contract N01-AI-70042. For the results described herein, a 101,000 compound library that was purchased from ChemBridge for the NIAID TAACF program was used. This library was carefully selected for diversity and minimal similarity to the 100,000 compound NINDS library, which is also planned to be screened using the TRANA Discovery Biochemical HIV-1 tRNA Inhibition Assay. The compounds were screened at a concentration of 12.5 μg/mL (first 3 batches) or 25 μg/mL (fourth and final batch).

SMILES | Activity
Cc1cccc(CNc2ccc3c(c2)OCO3)c1 [1,3-benzodioxol-5-yl(3-methylbenzyl)amine] | +
O=C1c2ccccc2C(=O)c2c1cccc2N1CCCC1 [1-(1-pyrrolidinyl)anthra-9,10-quinone] | ++
CC(=NNc1ccccc1[N+](=O)[O-])c1ccco1 [1-(2-furyl)ethanone (2-nitrophenyl)hydrazone] | +
O=C1NC(=S)N(c2cccc(Cl)c2)C(=O)C1=Cc1ccco1 [1-(3-chlorophenyl)-5-(2-furylmethylene)-2-thioxodihydro-4,6(1H,5H)-pyrimidinedione] | +
Cc1cccc(N2C(=O)C(=Cc3cccn3C)C(=O)NC2=S)c1 [1-(3-methylphenyl)-5-[(1-methyl-1H-pyrrol-2-yl)methylene]-2-thioxodihydro-4,6(1H,5H)-pyrimidinedione] | ++
O=C1NC(=S)N(c2ccc(Cl)cc2)C(=O)C1=Cc1ccco1 [1-(4-chlorophenyl)-5-(2-furylmethylene)-2-thioxodihydro-4,6(1H,5H)-pyrimidinedione] | +
Cn1cccc1C=C1C(=O)NC(=S)N(c2ccc(Cl)cc2)C1=O [1-(4-chlorophenyl)-5-[(1-methyl-1H-pyrrol-2-yl)methylene]-2-thioxodihydro-4,6(1H,5H)-pyrimidinedione] | +
O=C1NC(=S)N(c2ccc(Cl)cc2)C(=O)C1=Cc1ccc([N+](=O)[O-])o1 [1-(4-chlorophenyl)-5-[(5-nitro-2-furyl)methylene]-2-thioxodihydro-4,6(1H,5H)-pyrimidinedione] | +
CCC(=NNc1ccccc1[N+](=O)[O-])c1ccc(O)cc1 [1-(4-hydroxyphenyl)-1-propanone (2-nitrophenyl)hydrazone] | ++
COc1ccc(N2CCN(c3cc(Cl)ccc3[N+](=O)[O-])CC2)cc1 [1-(5-chloro-2-nitrophenyl)-4-(4-methoxyphenyl)piperazine] | +
CN(C)c1cccc2c1C(=O)c1ccccc1C2=O [1-(dimethylamino)anthra-9,10-quinone] | ++
CC1(C)CC(Nc2cccc3c2C(=O)c2ccccc2C3=O)CC(C)(C)N1 [1-[(2,2,6,6-tetramethyl-4-piperidinyl)amino]anthra-9,10-quinone] | +
Nc1c(Cl)cc(N2CCCC2)c2c1C(=O)c1ccccc1C2=O [1-amino-2-chloro-4-(1-pyrrolidinyl)anthra-9,10-quinone] | +
Cc1ccc(N2CCCCC2)c2c1C(=O)c1ccccc1C2=O [1-methyl-4-(1-piperidinyl)anthra-9,10-quinone] | ++
Cc1ccc(Nc2cc(C)c(O)c(C)c2)cc1 [2,6-dimethyl-4-[(4-methylphenyl)amino]phenol] | ++
O=C1C(Cl)=C(NCc2ccccc2)C(=O)c2ccccc21 [2-(benzylamino)-3-chloronaphthoquinone] | +
Cc1cccc(NC2=C(N(C)C)C(=O)c3ccccc3C2=O)c1 [2-(dimethylamino)-3-[(3-methylphenyl)amino]naphthoquinone] | ++
Cc1cccc(NC2=C(NCCO)C(=O)c3ccccc3C2=O)c1 [2-[(2-hydroxyethyl)amino]-3-[(3-methylphenyl)amino]naphthoquinone] | +
Cc1ccccc1NC1=C(N2CCOCC2)C(=O)c2ccccc2C1=O [2-[(2-methylphenyl)amino]-3-(4-morpholinyl)naphthoquinone] | ++
O=C1C(Nc2ccc(F)c(F)c2)=C(N2CCOCC2)C(=O)c2ccccc21 [2-[(3,4-difluorophenyl)amino]-3-(4-morpholinyl)naphthoquinone] | +
O=C1C(Nc2cc(F)cc(F)c2)=C(N2CCOCC2)C(=O)c2ccccc21 [2-[(3,5-difluorophenyl)amino]-3-(4-morpholinyl)naphthoquinone] | ++
O=C1C(Nc2cccc(Cl)c2)=C(N2CCOCC2)C(=O)c2ccccc21 [2-[(3-chlorophenyl)amino]-3-(4-morpholinyl)naphthoquinone] | ++

SMILES | Activity
O=C1C(Nc2cccc(F)c2)=C(N2CCCC2)C(=O)c2ccccc21 [2-[(3-fluorophenyl)amino]-3-(1-pyrrolidinyl)naphthoquinone] | ++
O=C1C(Nc2cccc(O)c2)=C(N2CCCCC2)C(=O)c2ccccc21 [2-[(3-hydroxyphenyl)amino]-3-(1-piperidinyl)naphthoquinone] | +
COc1cccc(NC2=C(N3CCCCC3)C(=O)c3ccccc3C2=O)c1 [2-[(3-methoxyphenyl)amino]-3-(1-piperidinyl)naphthoquinone] | ++
COc1cccc(NC2=C(N3CCCC3)C(=O)c3ccccc3C2=O)c1 [2-[(3-methoxyphenyl)amino]-3-(1-pyrrolidinyl)naphthoquinone] | ++
COc1cccc(NC2=C(N3CCOCC3)C(=O)c3ccccc3C2=O)c1 [2-[(3-methoxyphenyl)amino]-3-(4-morpholinyl)naphthoquinone] | ++
Cc1cccc(NC2=C(N3CCCC3)C(=O)c3ccccc3C2=O)c1 [2-[(3-methylphenyl)amino]-3-(1-pyrrolidinyl)naphthoquinone] | ++
Cc1cccc(NC2=C(N3CCOCC3)C(=O)c3ccccc3C2=O)c1 [2-[(3-methylphenyl)amino]-3-(4-morpholinyl)naphthoquinone] | ++
Cc1ccc2c(C)nc(Nc3nc(C)cc(O)n3)nc2c1 [2-[(4,7-dimethyl-2-quinazolinyl)amino]-6-methyl-4-pyrimidinol] | +
CC(=O)c1ccc(NC2=C(N3CCCC3)C(=O)c3ccccc3C2=O)cc1 [2-[(4-acetylphenyl)amino]-3-(1-pyrrolidinyl)naphthoquinone] | ++
O=[N+]([O-])c1ccc(Nc2ccccc2O)c2nonc12 [2-[(7-nitro-2,1,3-benzoxadiazol-4-yl)amino]phenol] | ++
Cc1ccccc1NC1=C(N)C(=O)c2ccccc2C1=O [2-amino-3-[(2-methylphenyl)amino]naphthoquinone] | +
O=C(NN1C(=O)C(=Cc2ccc(O)c(O)c2)SC1=S)c1ccccc1Br [2-bromo-N-[5-(3,4-dihydroxybenzylidene)-4-oxo-2-thioxo-1,3-thiazolidin-3-yl]benzamide] | +
CN(C)C1=C(Cl)C(=O)c2ccccc2C1=O [2-chloro-3-(dimethylamino)naphthoquinone] | ++
CC(C)NC1=C(Cl)C(=O)c2ccccc2C1=O [2-chloro-3-(isopropylamino)naphthoquinone] | +
O=[N+]([O-])c1ccccc1NN=Cc1ccc(O)c(O)c1 [3,4-dihydroxybenzaldehyde (2-nitrophenyl)hydrazone] | ++
C=CCN1C(=O)C(=Cc2cc(Cl)cc(Cl)c2O)SC1=S [3-allyl-5-(3,5-dichloro-2-hydroxybenzylidene)-2-thioxo-1,3-thiazolidin-4-one] | +
NN1C(=O)C(=Cc2ccc(O)c(O)c2)SC1=S [3-amino-5-(3,4-dihydroxybenzylidene)-2-thioxo-1,3-thiazolidin-4-one] | +
CCCCOc1cccc(C(=O)NC(=S)Nc2ccc(N(C)C)cc2)c1 [3-butoxy-N-({[4-(dimethylamino)phenyl]amino}carbonothioyl)benzamide] | +
CN(CCN(C)N=Cc1cccc([N+](=O)[O-])c1)N=Cc1cccc([N+](=O)[O-])c1 [3-nitrobenzaldehyde 1,2-ethanediyl(methylhydrazone)] | +
Cc1ccc2c(c1)-c1c(s[s+]c1SCC(=O)c1ccc([N+](=O)[O-])cc1)C(C)(C)N2.[Cl-] [4,4,8-trimethyl-1-{[2-(4-nitrophenyl)-2-oxoethyl]thio}-4,5-dihydro[1,2]dithiolo[3,4-c]quinolin-2-ium chloride] | ++
O=[N+]([O-])c1ccc(Nc2ccc(O)cc2)c2nonc12 [4-[(7-nitro-2,1,3-benzoxadiazol-4-yl)amino]phenol] | ++
CN1C(=O)C(=Cc2c(Cl)ccc([N+](=O)[O-])c2Cl)SC1=S [5-(2,6-dichloro-3-nitrobenzylidene)-3-methyl-2-thioxo-1,3-thiazolidin-4-one] | ++
